Source: patent publication US9365562B2, “1,3 substituted azetidine PDE10 inhibitors” (Merck Sharp & Dohme Corp., priority 2011, dated 2016)

Target: human PDE10A2 (Homo sapiens (Human), UniProt Q9Y233)
Experiment: PDE10 fluorescence polarization (IMAP FP) inhibition assay
Format: biochemical
Conditions: apparent inhibition constant, FAM-labeled cAMP substrate 50 nM, room temperature
Protocol: The activity of the compounds in accordance with the present invention as PDE10 inhibitors may be readily determined without undue experimentation using a fluorescence polarization (FP) methodology that is well known in the art (Huang, W., et al., J. Biomol Screen, 2002, 7: 215).
In a typical experiment the PDE10 inhibitory activity of the compounds of the present invention was determined in accordance with the following experimental method. PDE10A2 was amplified from human fetal brain cDNA (Clontech, Mountain View, Calif.) using a forward primer corresponding to nucleotides 56-77 of human PDE10A2 (Accession No. AF127480, Genbank Identifier 4894716), containing a Kozak consensus sequence, and a reverse primer corresponding to nucleotides 2406-2413 of human PDE10A2 (Accession No. AF127480, Genbank Identifier 4894716). Amplification with Easy-A polymerase (Stratagene, La Jolla, Calif.) was 95° C. for 2 minutes followed by thirty three cycles of 95° C. for 40 seconds, 55° C. for 30 seconds, and 72° C. for 2 minutes 48 seconds. Final extension was 72° C. for 7 minutes. The PCR product was TA cloned into pcDNA3.2-TOPO (Invitrogen, Carlsbad, Calif.) according to standard protocol. AD293 cells with 70-80% confluency were transiently transfected with human PDE10A2/pcDNA3.2-TOPO using Lipofectamine 2000 according to manufacturer specifications (Invitrogen, Carlsbad, Calif.). Cells were harvested 48 hours post-transfection and lysed by sonication (setting 3, 10×5 sec pulses) in a buffer containing 20 mM HEPES, 1 mM EDTA and protease inhibitor cocktail (Roche). Lysate was collected by centrifugation at 75,000×g for 20 minutes. Supernatant containing the cytoplasmic fraction was used for evaluation of PDE10A2 activity. The fluorescence polarization assay for cyclic nucleotide phosphodiesterases was performed using an IMAP® FP kit supplied by Molecular Devices, Sunnyvale, Calif. (product # R8139). IMAP® technology has been applied previously to phosphodiesterase assays (Huang, W., et al., J. Biomol Screen, 2002, 7: 215). Assays were performed at room temperature in 384-well microtiter plates with an incubation volume of 20.2 μL. Solutions of test compounds were prepared in DMSO and serially diluted with DMSO to yield 8 μL of each of 10 solutions differing by 3-fold in concentration, at 32 serial dilutions per plate. 100% inhibition is determined using a known PDE10 inhibitor, which can be any compound that is present at 5,000 times its Ki value in the assay described as follows, such as papaverine (see Siuciak, et al. Neuropharmacology (2006) 51:386-396; Becker, et al. Behav Brain Res (2008) 186(2):155-60; Threlfell, et al., J Pharmacol Exp Ther (2009) 328(3):785-795), 2-{4-[pyridin-4-yl-1-(2,2,2-trifluoroethyl)-1H-pyrazol-3-yl]phenoxymethyl}quinoline succinic acid or 2-[4-(1-methyl-4-pyridin-4-yl-1H-pyrazol-3-yl)-phenoxymethyl]quinoline succinic acid (see Schmidt, et al. J Pharmacol Exp Ther (2008) 325:681-690; Threlfell, et al., J Pharmacol Exp Ther (2009) 328(3): 785-795). 0% of inhibition is determined by using DMSO (1% final concentrations). A Labcyte Echo 555 (Labcyte, Sunnyvale, Calif.) is used to dispense […] from each well of the titration plate to the 384 well assay plate. A solution of enzyme (1/7000 dilution from aliquots; sufficient to produce 20% substrate conversion) and a separate solution of FAM-labeled cAMP PDE from Molecular Devices (product # R7506), at a final concentration of 50 nM are made in the assay buffer (10 mM Tris HCl, pH 7.2, 10 mM MgCl2, 0.05% NaN3 0.01% Tween-20, and 1 mM DTT). The enzyme is added to the assay plates by the addition of 10 μL of enzyme solution to each well, shaken to mix and incubated at room temperature for 60 minutes. The substrate is then added to the assay plates by the addition of 10 μL of substrate solution to each well, shaken to mix, and incubated at room temperature for 60 minutes. […]

human PDE10A2, sequence (Q9Y233 267-1055): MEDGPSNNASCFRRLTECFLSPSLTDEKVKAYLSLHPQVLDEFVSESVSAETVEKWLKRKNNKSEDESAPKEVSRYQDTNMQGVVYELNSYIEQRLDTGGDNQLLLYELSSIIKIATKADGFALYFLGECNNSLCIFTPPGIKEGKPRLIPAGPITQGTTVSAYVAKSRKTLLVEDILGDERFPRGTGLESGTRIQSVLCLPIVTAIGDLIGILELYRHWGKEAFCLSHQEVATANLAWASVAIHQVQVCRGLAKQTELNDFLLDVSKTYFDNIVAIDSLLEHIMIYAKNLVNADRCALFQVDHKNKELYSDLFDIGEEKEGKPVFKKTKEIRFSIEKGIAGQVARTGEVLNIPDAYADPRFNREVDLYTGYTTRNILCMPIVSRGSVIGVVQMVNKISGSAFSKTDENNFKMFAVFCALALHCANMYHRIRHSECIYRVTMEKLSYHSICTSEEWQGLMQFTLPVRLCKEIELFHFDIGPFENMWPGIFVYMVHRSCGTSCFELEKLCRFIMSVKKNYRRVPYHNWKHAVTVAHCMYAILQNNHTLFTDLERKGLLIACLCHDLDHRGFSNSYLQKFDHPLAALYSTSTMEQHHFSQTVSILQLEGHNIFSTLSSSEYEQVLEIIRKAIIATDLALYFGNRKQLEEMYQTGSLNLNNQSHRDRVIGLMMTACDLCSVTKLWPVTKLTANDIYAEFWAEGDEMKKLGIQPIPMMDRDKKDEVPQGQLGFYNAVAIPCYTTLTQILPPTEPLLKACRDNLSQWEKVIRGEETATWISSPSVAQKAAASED

Point of comparison: `Cc1nc(N2CC(c3nc4ccccc4n3C)C2)cc(-n2nc(C)nc2C2CC(=O)N(C)C2)n1` (stereo not drawn) [Example 47, 1-methyl-4-(3-methyl-1-(2-methyl-6-(3-(1-methyl-1H-benzo[d]imidazol-2-yl)azetidin-1-yl)pyrimidin-4-yl)-1H-1,2,4-triazol-5-yl)pyrrolidin-2-one], Ki 3.9 nM. Against it:
- Cc1nc(N2CC(c3nc4ccccc4n3C)C2)cc(-n2nc(C)nc2CN2CCCC2=O)n1 [Example 48, 1-((3-methyl-1-(2-methyl-6-(3-(1-methyl-1H-benzo[d]imidazol-2-yl)azetidin-1-yl)pyrimidin-4-yl)-1H-1,2,4-triazol-5-yl)methyl)pyrrolidin-2-one] — 15-fold lower, 0.26 nM
- Cc1nc(-c2ccc(Cl)cn2)cc(N2CC(c3nc4ccccc4n3C)C2)n1 [Example 99, 2-(1-(6-(5-chloropyridin-2-yl)-2-methylpyrimidin-4-yl)azetidin-3-yl)-1-methyl-1H-benzo[d]imidazole] — 3.5-fold lower, 1.1 nM
- Cc1cnn(-c2cc(N3CC(c4nc5ccccc5n4C)C3)nc(C)n2)n1 [Example 28, 1-methyl-2-(1-(2-methyl-6-(4-methyl-2H-1,2,3-triazol-2-yl)pyrimidin-4-yl)azetidin-3-yl)-1H-benzo[d]imidazole] — 2.3-fold lower, 1.7 nM
- Cc1nc(C)n(-c2cc(N3CC(c4nc5ccccc5n4C)C3)nc(-n3cccn3)n2)n1 [Example 76, 2-(1-(6-(3,5-dimethyl-1H-1,2,4-triazol-1-yl)-2-(1H-pyrazol-1-yl)pyrimidin-4-yl)azetidin-3-yl)-1-methyl-1H-benzo[d]imidazole] — 6.4-fold lower, 0.61 nM
- Cc1nc(-c2ccccc2OC(F)F)cc(N2CC(c3nc4ccccc4n3C)C2)n1 [Example 91, 2-(1-(6-(2-(difluoromethoxy)phenyl)-2-methylpyrimidin-4-yl)azetidin-3-yl)-1-methyl-1H-benzo[d]imidazole] — 5.6-fold higher, 22 nM
- CCc1nc(C)nn1-c1cc(N2CC(c3nc4ccccc4n3C)C2)nc(C(F)(F)F)n1 [Example 67, 2-(1-(6-(5-ethyl-3-methyl-1H-1,2,4-triazol-1-yl)-2-(trifluoromethyl)pyrimidin-4-yl)azetidin-3-yl)-1-methyl-1H-benzo[d]imidazole] — 14-fold lower, 0.28 nM
- CCc1nc(CC)n(-c2cc(N3CC(c4nc5ccccc5n4C)C3)nc(C)n2)n1 [Example 22, 2-(1-(6-(3,5-diethyl-1H-1,2,4-triazol-1-yl)-2-methylpyrimidin-4-yl)azetidin-3-yl)-1-methyl-1H-benzo[d]imidazole] — within 1.5-fold, 3.3 nM
- Cc1nc(N2CC(c3nc4ccccc4n3C)C2)cc(-n2nc(C)nc2-c2ccc(C#N)cc2)n1 [Example 54, 4-(3-methyl-1-(2-methyl-6-(3-(1-methyl-1H-benzo[d]imidazol-2-yl)azetidin-1-yl)pyrimidin-4-yl)-1H-1,2,4-triazol-5-yl)benzonitrile] — 4.1-fold higher, 16 nM
- Cc1nc(C)n(-c2cc(N3CC(c4nc5ccccc5n4C)C3)nc(OCc3ccon3)n2)n1 [Example 74, 3-(((4-(3,5-dimethyl-1H-1,2,4-triazol-1-yl)-6-(3-(1-methyl-1H-benzo[d]imidazol-2-yl)azetidin-1-yl)pyrimidin-2-yl)oxy)methyl)isoxazole] — 8-fold lower, 0.49 nM
- COc1nc(N2CC(c3nc4ccccc4n3C)C2)cc(-n2ncc(C)n2)n1 [Example 34, 2-{1-[2-methoxy-6-(4-methyl-2H-1,2,3-triazol-2-yl)pyrimidin-4-yl]azetidin-3-yl}-1-methyl-1H-benzimidazole] — 2.8-fold lower, 1.4 nM
- Cc1nc(N2CC(c3nc4ccccc4n3C)C2)cc(-n2ccc(C(C)C)n2)n1 [Example 14, 2-(1-(6-(3-isopropyl-1H-pyrazol-1-yl)-2-methylpyrimidin-4-yl)azetidin-3-yl)-1-methyl-1H-benzo[d]imidazole] — 6-fold lower, 0.65 nM
- Cc1ccc(-c2cc(N3CC(c4nc5ccccc5n4C)C3)nc(C)n2)c(F)n1 [Example 85, 2-(1-(6-(2-fluoro-6-methylpyridin-3-yl)-2-methylpyrimidin-4-yl)azetidin-3-yl)-1-methyl-1H-benzo[d]imidazole] — 2.1-fold higher, 8 nM
- Cc1nc(C)n(-c2cc(N3CC(c4nc5ccccc5n4C)C3)nc(OCc3ccnn3C)n2)n1 [Example 73, 2-(1-(6-(3,5-dimethyl-1H-1,2,4-triazol-1-yl)-2-((1-methyl-1H-pyrazol-5-yl)methoxy)pyrimidin-4-yl)azetidin-3-yl)-1-methyl-1H-benzo[d]imidazole] — 30-fold lower, 0.13 nM
- COc1cnn(-c2cc(N3CC(c4nc5ccccc5n4C)C3)nc(C)n2)c1 [Example 18, 2-(1-(6-(4-methoxy-1H-pyrazol-1-yl)-2-methylpyrimidin-4-yl)azetidin-3-yl)-1-methyl-1H-benzo[d]imidazole] — within 1.5-fold, 3.2 nM
- Cc1nc(C)n(-c2cc(N3CC(c4nc5ccccc5n4C)C3)nc(OCc3ccno3)n2)n1 [Example 71, 5-(((4-(3,5-dimethyl-1H-1,2,4-triazol-1-yl)-6-(3-(1-methyl-1H-benzo[d]imidazol-2-yl)azetidin-1-yl)pyrimidin-2-yl)oxy)methyl)isoxazole] — 9.8-fold lower, 0.4 nM
- COc1nc(N2CC(c3nc4ccccc4n3C)C2)cc(-n2cc(C)cn2)n1 [Example 4, 2-(1-(2-methoxy-6-(4-methyl-1H-pyrazol-1-yl)pyrimidin-4-yl)azetidin-3-yl)-1-methyl-1H-benzo[d]imidazole] — 4.8-fold lower, 0.82 nM
- Cc1nc(N2CC(c3nc4ccccc4n3C)C2)cc(-n2nc(C)nc2C2CCCCC2)n1 [Example 45, 2-(1-(6-(5-cyclohexyl-3-methyl-1H-1,2,4-triazol-1-yl)-2-methylpyrimidin-4-yl)azetidin-3-yl)-1-methyl-1H-benzo[d]imidazole] — 1.9-fold lower, 2 nM
- Cc1nc(N2CC(c3nc4ccccc4n3CCCC#N)C2)cc(-n2nc(C)nc2C)n1 [Example 121, 4-(2-(1-(6-(3,5-dimethyl-1H-1,2,4-triazol-1-yl)-2-methylpyrimidin-4-yl)azetidin-3-yl)-1H-benzo[d]imidazol-1-yl)butanenitrile] — 2.4-fold higher, 9.5 nM
- Cc1noc(COc2nc(N3CC(c4nc5ccccc5n4C)C3)cc(-n3nc(C)nc3C)n2)n1 [Example 75, 5-(((4-(3,5-dimethyl-1H-1,2,4-triazol-1-yl)-6-(3-(1-methyl-1H-benzo[d]imidazol-2-yl)azetidin-1-yl)pyrimidin-2-yl)oxy)methyl)-3-methyl-1,2,4-oxadiazole] — 5.6-fold lower, 0.7 nM
- CC(=O)c1ccnc(-c2cc(N3CC(c4nc5ccccc5n4C)C3)nc(C)n2)c1 [Example 101, 1-(2-(2-methyl-6-(3-(1-methyl-1H-benzo[d]imidazol-2-yl)azetidin-1-yl)pyrimidin-4-yl)pyridin-4-yl)ethanone] — 7.9-fold higher, 31 nM
- COC(=O)c1nc(N2CC(c3nc4ccccc4n3C)C2)cc(-n2nc(C)nc2C)n1 [Example 24, methyl 4-(3,5-dimethyl-1H-1,2,4-triazol-1-yl)-6-(3-(1-methyl-1H-benzo[d]imidazol-2-yl)azetidin-1-yl)pyrimidine-2-carboxylate] — 2.2-fold lower, 1.8 nM
- Cc1nc(N2CC(c3nc4ccccc4n3C)C2)cc(-n2nc(C)nc2-c2ccccc2Cl)n1 [Example 50, 2-(1-(6-(5-(2-chlorophenyl)-3-methyl-1H-1,2,4-triazol-1-yl)-2-methylpyrimidin-4-yl)azetidin-3-yl)-1-methyl-1H-benzo[d]imidazole] — 11-fold lower, 0.35 nM
- Cc1cc(C(F)(F)F)n(-c2cc(N3CC(c4nc5ccccc5n4C)C3)nc(C)n2)n1 [Example 10, 1-methyl-2-(1-(2-methyl-6-(3-methyl-5-(trifluoromethyl)-1H-pyrazol-1-yl)pyrimidin-4-yl)azetidin-3-yl)-1H-benzo[d]imidazole] — within 1.5-fold, 4 nM
